Data published in patent US5118681A (priority 1989, dated 1992).

Assays:
[1] = test system: S.a; test: Minimum Inhibitory Concentration Test, alternate (Table 4), S.a; format: cell-based, Staphylococcus aureus; details: TSB, 72 hours
In short: (§1)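 Compound in acetone was diluted into TSB and serially diluted 1:1 from 250 ppm down to 0.8 ppm, in duplicate. Plates were inoculated with diluted 24 h culture and incubated 3 days at 30° C; MIC recorded as lowest concentration with no growth.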

[2] = test system: Pellicularia filamentosa (f. sp. sasiki); test: whole plant or invertebrate; format: in vivo; details: in vivo
[3] = test system: Piricularia oryzae; test: whole plant or invertebrate; format: in vivo; details: in vivo
[4] = test system: Ps.ae; test: Minimum Inhibitory Concentration Test, alternate (Table 4), Ps.ae; format: cell-based, Pseudomonas aerugenosa; details: TSB, 72 hours
[5] = test system: Phytophthora infestans; test: whole plant or invertebrate; format: in vivo; details: 200 ppm application rate
[6] = test system: A.n; test: Minimum Inhibitory Concentration Test, alternate (Table 4), A.n; format: cell-based, Aspergillus niger; details: TSB, 72 hours
In short: as §1

[7] = test system: Pseudoperonospora cubensis; test: whole plant or invertebrate; format: in vivo; details: in vivo
[8] = test system: Pseudomonas fluorescens; test: Minimum Inhibitory Concentration Test, alternate (Table 4), Ps.fl; format: cell-based; details: TSB, 72 hours, 30° C
In short: as §1

[9] = test system: E.c; test: Minimum Inhibitory Concentration Test, alternate (Table 4), E.c; format: cell-based, Escherichia coli; details: TSB, 72 hours
In short: as §1

[10] = test system: Erysiphe graminis (f. sp. tritici); test: whole plant or invertebrate; format: in vivo; details: in vivo
[11] = test system: Pseudomonas fluorescens; test: Speed of Kill Test, alternate, 24 h, synthetic hard water (Table 4); format: cell-based; details: Ps.fl in synthetic hard water, 100 ppm
[12] = test system: Candida albicans (C.alb); test: Minimum Inhibitory Concentration Test, alternate (Table 4), C.alb; format: cell-based; details: TSB, 72 hours
In short: as §1

N-n-octyl-cis-3-{2-[ethyl-N-(2-thiophenylmethyl)malonamido]thio}acrylamide [Example 28]
MIC S.a [1]: 500 ppm
% control RSB [2]: 0%
% control RB [3]: 25%
MIC Ps.ae [4]: 500 ppm
% control TLB [5]: 50%
MIC A.n [6]: 16-31 ppm
% control CDM [7]: 96%
MIC Ps.fl [8]: 500 ppm
MIC E.c [9]: 500 ppm
% control WPM [10]: 0%
SOK [11]: > 100 ppm
MIC C.alb [12]: 63 ppm
